Measured values reported in ChEMBL document CHEMBL1154016, “An efficient synthesis and biological study of novel indolyl-1,3,4-oxadiazoles as potent anticancer agents” (Bioorg Med Chem Lett, 2009).

Key:
PC-3 = assay: Cytotoxicity against human PC3 cells by MTT assay; type: functional, cell-based
DU-145 = assay: Cytotoxicity against human DU145 cells by MTT assay; type: functional, cell-based
LNCaP = assay: Cytotoxicity against human LNCAP cells by MTT assay; type: functional, cell-based
MDA-MB-231 = assay: Cytotoxicity against human MDA-MB-231 cells by MTT assay; type: functional, cell-based
MCF7 [1] = assay: Cytotoxicity against human MCF7 cells by MTT assay; type: functional, cell-based
MIA PaCa-2 = assay: Cytotoxicity against human MIAPaCa2 cells by MTT assay; type: functional, cell-based
MCF7 [2] = assay: Selectivity ratio of IC50 for human MIAPaCa2 cells to IC50 for human MCF7 cells; type: functional

SMILES | IC50 (PC-3) [µM] | IC50 (DU-145) [µM] | IC50 (LNCaP) [µM] | IC50 (MDA-MB-231) [µM] | IC50 (MCF7 [1]) [µM] | IC50 (MIA PaCa-2) [µM] | Ratio IC50 (MCF7 [2])
FC(F)(F)c1nnc(-c2c[nH]c3ccccc23)o1 | > 1000 | > 1000 | > 1000 | > 1000 | > 1000 | > 1000 | 
c1ccc(Cc2nnc(-c3c[nH]c4ccccc34)o2)cc1 | > 1000 | > 1000 | > 1000 | > 1000 | 39.2 | 934 | 24
c1ccc2c(-c3nnc(-c4ccncc4)o3)c[nH]c2c1 | 4.1 | 20.4 | 10 | > 1000 | 1 | 1.6 | 
Clc1ccc(-c2nnc(-c3c[nH]c4ccccc34)o2)cc1 | 41.6 | 192 | 583 | > 1000 | 48.2 | 6460 | 
COc1cc(-c2nnc(-c3c[nH]c4ccccc34)o2)ccc1OCc1ccccc1 | > 1000 | > 1000 | > 1000 | > 1000 | > 1000 | > 1000 | 
c1ccc(-c2nnc(-c3c[nH]c4ccccc34)o2)cc1 | > 1000 | > 1000 | > 1000 | > 1000 | 388 | > 1000 | 
COc1cc(-c2nnc(-c3c[nH]c4ccccc34)o2)ccc1O | > 1000 | > 1000 | > 1000 | > 1000 | > 1000 | > 1000 | 
COc1ccc(-c2nnc(-c3c[nH]c4ccccc34)o2)cc1OC | > 1000 | > 1000 | > 1000 | > 1000 | 557 | > 1000 | 
COc1ccc(-c2nnc(-c3c[nH]c4ccccc34)o2)cc1 | > 1000 | > 1000 | > 1000 | > 1000 | > 1000 | > 1000 | 
COc1ccc(-c2nnc(-c3c[nH]c4ccccc34)o2)c(OC)c1OC | > 1000 | > 1000 | > 1000 | > 1000 | 121 | > 1000 | 
c1cncc(-c2nnc(-c3c[nH]c4ccccc34)o2)c1 | 711 | 170 | 69.4 | > 1000 | 5.4 | 0.9 | 
COc1cc(-c2nnc(-c3cn(C)c4ccccc34)o2)ccc1OCc1ccccc1 | > 1000 | > 1000 | > 1000 | > 1000 | 35.2 | 1.4 | 
Cc1nnc(-c2c[nH]c3ccccc23)o1 | > 1000 | > 1000 | > 1000 | > 1000 | 198 | 145 | 
